Laboratory results as given in publication PMC6268188, “Comparative Studies of the (Anti) Mutagenicity of Baccharis dracunculifolia and Artepillin C by the Bacterial Reverse Mutation Test” (Molecules, 2012).
“And” between values parts separate entries of the source, which are not always exact repeats. Equal entries are not always repeated. Where two headings read alike, the source gives them in different places. Marks after values point to notes of the source that are not given here.

Legend:
[1] = tested on: S. typhimurium TA98; conditions: positive control, 1.25 μg/ plate, TA 98, + S9
[2] = tested on: S. typhimurium TA97a; conditions: mutagen alone (Ctrol +), 1.25 μg/ plate, TA 97a, + S9; listed as AA
[3] = tested on: S. typhimurium TA100; conditions: positive control, 1.25 μg/ plate, TA 100, + S9
[4] = tested on: S. typhimurium TA97a; conditions: positive control, 1.25 μg/ plate, TA 97, + S9
[5] = tested on: S. typhimurium TA100

| Compound | Number of revertants (M ± SD)/ plate [1] | Number of revertants (M ± SD)/ plate [2] | Number of revertants (M ± SD)/ plate [3] | Number of revertants (M ± SD)/ plate [4] | Number of revertants (M ± SD)/ plate [5] |
| --- | --- | --- | --- | --- | --- |
| Nc1ccc2cc3ccccc3cc2c1 [2-anthramine, 2-aminoanthracene, reference compound] | 1567 ± 115 ^e revertants/plate and 1498 ± 33^ e revertants/plate | 2312 ± 81 revertants/plate and 1861 ± 23 revertants/plate | 1456 ± 78 ^e revertants/plate and 1072 ± 25^ e revertants/plate | 1789 ± 89 ^e revertants/plate and 1861 ± 23 ^e revertants/plate | – |
| aflatoxin B1 [AFB1, reference compound] | – | – | – | – | 2171 ± 33 revertants/plate and 2200 ± 140 revertants/plate |
